According to ChEMBL document CHEMBL5506003, “Design and biological evaluation of dual tubulin/HDAC inhibitors based on millepachine for treatment of prostate cancer” (Eur J Med Chem, 2024):
Calls of active or inactive are those of the source. The calls are words filed in the database; no cut-off is given here.

Columns and labels:
[1] = Toxicity in BALB/c nude mouse xenografted with human PC-3 cells assessed as kidney damage at 10 to 20 mg/kg, iv administered every 2 days and measured after 3 weeks; format: organism-based; conditions: in vivo, 504 h, dose 10-20 mg/kg
PC-3 [2] = assay: Inhibition of colony formation in human PC-3 cells at 5 nM incubated for 24 hrs followed by replacement with fresh media and measured after 2 weeks by crystal violet staining based assay; format: functional, cell-based
Tubulin (Homo sapiens) [3] = target: T1, Tubulin (Homo sapiens) (UniProt P68371+Q9H4B7+P0DPH7+P68366+Q13509+Q71U36+P04350+Q3ZCM7+P07437+P68363+Q9BQE3+Q6PEY2+Q13885+Q9BVA1+Q9BUF5); assay: Binding affinity to tubulin colchicine binding site in human PC-3 cells assessed as reduction in beta-tubulin adduct formation at 5 uM preincubated for 2 hrs followed by EBI addition and measured after 1.5 hrs by Western blotting assay; format: cell-based; parameters: scale not given: the % may be the effect or the level left; conditions: time 3.5 hrs
PC-3 [4] = assay: Induction of cell cycle arrest in human PC-3 cells assessed as S phase cells at 0.32 uM incubated for 24 hrs by PI staining based flow cytometry analysis (reference value: 31.7%); format: functional
PC-3 [5] = assay: Induction of apoptosis in human PC-3 cells assessed as viable cells at 0.16 uM incubated for 24 hrs by Annexin V-FITC and PI staining based flow cytometry (reference value: 97.5%); format: functional; conditions: read-out: Activity
Histone deacetylase 2 = Histone deacetylase 2 (Homo sapiens, UniProt Q92769); assay: Inhibition of HDAC2 in human HeLa nuclear extracts incubated for 30 mins by fluorescence based assay; format: cell-based
Sequence of Histone deacetylase 2 (Q92769 whole entry): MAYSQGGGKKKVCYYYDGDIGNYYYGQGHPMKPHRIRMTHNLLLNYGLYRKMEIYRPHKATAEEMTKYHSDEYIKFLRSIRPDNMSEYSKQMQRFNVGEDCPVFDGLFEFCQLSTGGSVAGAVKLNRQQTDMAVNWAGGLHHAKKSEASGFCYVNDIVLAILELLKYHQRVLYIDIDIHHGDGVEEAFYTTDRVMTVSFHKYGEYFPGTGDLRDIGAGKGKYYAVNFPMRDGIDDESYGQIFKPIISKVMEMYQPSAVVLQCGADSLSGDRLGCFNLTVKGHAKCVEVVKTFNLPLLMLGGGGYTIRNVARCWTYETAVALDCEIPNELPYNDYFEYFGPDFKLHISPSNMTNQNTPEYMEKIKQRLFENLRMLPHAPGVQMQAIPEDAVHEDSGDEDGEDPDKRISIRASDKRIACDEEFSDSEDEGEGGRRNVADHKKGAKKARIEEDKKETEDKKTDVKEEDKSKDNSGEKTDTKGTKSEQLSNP

PC-3 [6] = assay: Cytotoxicity against human PC-3 cells incubated for 72 hrs by MTT assay; conditions: PC-3, 72 h
PC-3 [7] = assay: Induction of cell cycle arrest in human PC-3 cells assessed as increase in cyclin B1 level at 0.08 to 0.32 uM by Western blotting analysis; format: functional, cell-based; conditions: dose 0.08-0.32 µM
PC-3 [8] = assay: Induction of cell cycle arrest in human PC-3 cells assessed as decrease in phosphorylated Cdc25c at Ser216 by Western blotting analysis; format: functional, cell-based; conditions: dose 0.08-0.32 µM
PC-3 [9] = assay: Induction of mitochondrial membrane potential loss in human PC-3 cells incubated for 24 hrs by JC-1 staining based flow cytometry analysis; format: functional, cell-based; conditions: dose 0.08-0.32 µM
[10] = Volume of distribution at steady state in Sprague-Dawley rat at 2 mg/kg, iv measured upto 24 hrs by HPLC-MS analysis; format: ADME, organism-based; conditions: in vivo, read-out: Vdss
PC-3 [11] = assay: Induction of mitochondrial membrane potential loss in human PC-3 cells assessed as increase in monomer JC-1 level by measuring green fluorescence intensity at 0.08 uM incubated for 24 hrs by JC-1 staining based flow cytometry analysis (reference value: 6.44%); format: functional
[12] = target: Histone deacetylase 3 (Homo sapiens) (UniProt O15379); assay: Inhibition of HDAC3 in human PC-3 cells assessed as increase in acetylated Histone-H3 level incubated for 24 hrs by Western blotting assay; format: cell-based; conditions: dose 0.08-0.32 µM
Sequence of Histone deacetylase 3 (Homo sapiens) (O15379 whole entry): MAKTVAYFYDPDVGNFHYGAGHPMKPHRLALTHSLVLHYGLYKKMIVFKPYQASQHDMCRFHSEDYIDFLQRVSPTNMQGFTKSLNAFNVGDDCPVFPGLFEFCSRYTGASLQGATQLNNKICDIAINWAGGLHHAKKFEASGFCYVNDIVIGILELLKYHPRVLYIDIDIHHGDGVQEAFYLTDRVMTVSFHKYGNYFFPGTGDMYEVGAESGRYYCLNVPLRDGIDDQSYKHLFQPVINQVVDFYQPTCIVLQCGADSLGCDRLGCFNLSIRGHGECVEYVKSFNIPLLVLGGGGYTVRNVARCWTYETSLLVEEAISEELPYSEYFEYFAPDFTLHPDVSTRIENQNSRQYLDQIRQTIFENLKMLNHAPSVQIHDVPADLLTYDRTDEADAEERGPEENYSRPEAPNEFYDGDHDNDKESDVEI

PC-3 [13] = assay: Induction of apoptosis in human PC-3 cells assessed as downregulation of Bcl-2 expression at 0.08 to 0.32 uM by Western blotting analysis; format: functional, cell-based; conditions: dose 0.08-0.32 µM
PC-3 [14] = assay: Induction of apoptosis in human PC-3 cells assessed as late apoptotic cells at 0.16 uM incubated for 24 hrs by Annexin V-FITC and PI staining based flow cytometry (reference value: 1.02%); format: functional
[15] = Half-life in Sprague-Dawley rat at 2 mg/kg, iv measured upto 24 hrs by HPLC-MS analysis; format: ADME, organism-based; conditions: in vivo
PC-3 [16] = assay: Induction of apoptosis in human PC-3 cells assessed as early apoptotic cells at 0.08 uM incubated for 24 hrs by Annexin V-FITC and PI staining based flow cytometry (reference value: 1.32%); format: functional
PC-3 [17] = assay: Induction of apoptosis in human PC-3 cells assessed as late apoptotic cells at 0.08 uM incubated for 24 hrs by Annexin V-FITC and PI staining based flow cytometry (reference value: 1.02%); format: functional
PC-3 [18] = assay: Induction of apoptosis in human PC-3 cells assessed as early apoptotic cells at 0.16 uM incubated for 24 hrs by Annexin V-FITC and PI staining based flow cytometry (reference value: 1.32%); format: functional
[19] = AUC(0 to t) in Sprague-Dawley rat at 2 mg/kg, iv measured upto 24 hrs by HPLC-MS analysis; format: ADME, organism-based; conditions: in vivo
[20] = MRT(0 to t) in Sprague-Dawley rat at 2 mg/kg, iv measured upto 24 hrs by HPLC-MS analysis; format: ADME, organism-based; conditions: in vivo
PC-3 [21] = assay: Induction of apoptosis in human PC-3 cells assessed as upregulation of cleaved PARP expression at 0.08 to 0.32 uM by Western blotting analysis; format: functional, cell-based; conditions: dose 0.08-0.32 µM
A549 = assay: Cytotoxicity against human A549 cells incubated for 72 hrs by MTT assay; conditions: A549, 72 h
Tubulin (Homo sapiens) [22] = target: T1, Tubulin (Homo sapiens); assay: Inhibition of microtubule polymerization in human PC-3 cells assessed as fragmented microtubule filaments at 0.32 uM incubated for 6 hrs by immunofluorescent staining based confocal microscopy assay; format: cell-based
[23] = Toxicity in BALB/c nude mouse xenografted with human PC-3 cells assessed as lung damage at 10 to 20 mg/kg, iv administered every 2 days and measured after 3 weeks; format: organism-based; conditions: in vivo, 504 h, dose 10-20 mg/kg
MCF7 = assay: Cytotoxicity against human MCF7 cells incubated for 72 hrs by MTT assay; conditions: MCF7, 72 h
PC-3 [24] = assay: Antitumor activity against human PC-3 cells xenografted in BALB/c nude mouse assessed as tumor growth inhibition at 20 mg/kg, iv administered every 2 days and measured after 3 weeks; format: functional; conditions: PC-3, 48 h, time 2 day, read-out: TGI

In the case of COc1ccc(/C=C/C(=O)c2ccc(OC)c3c2OC(C)(C)C=C3)cc1NCC(=O)NO, the Activity [1] is reported as “Non-Toxic”, the inhibition (PC-3 [2]) is reported as “Active” and the Activity (Tubulin (Homo sapiens) [3]) is reported as 100%. For the same molecule, the Activity (PC-3 [4]) was 10.6%, the viability at 0.16 µM (PC-3 [5]) was 78.8% and the IC50 (Histone deacetylase 2) was 430 nM. The IC50 (PC-3 [6]) was 16 nM, the Activity (PC-3 [7]) was “Active” and the Activity (PC-3 [8]) was “Active”. For the same molecule, the Activity (PC-3 [9]) was “Dose-Dependent Effect”, the Vd [10] was 0.42 L/kg and the Activity (PC-3 [11]) was 10.6%. The inhibition [12] was “Dose-Dependent Effect”, the Activity (PC-3 [13]) was “Active” and the Activity (PC-3 [14]) was 5.28%. The half-life [15] was 0.91 h, the Activity (PC-3 [16]) was 2.52% and the Activity (PC-3 [17]) was 2.59%. It also gave an Activity (PC-3 [18]) of 15.5%, an AUCt [19] of 9084 µg/L/h and an MRT last at 24 h [20] of 1.32 h. For the same molecule, the Activity (PC-3 [21]) was “Active”, the IC50 (A549) was 290 nM and the inhibition (Tubulin (Homo sapiens) [22]) was “Active”. For the same molecule, the Activity [23] was “Non-Toxic”, the IC50 (MCF7) was 160 nM and the inhibition in vivo at 20 mg/kg (PC-3 [24]) was 90.1%.
